From patent publication US8889711B2, “Pyrazolopyridine derivatives as anticancer agent” (Pierre Fabre Medicament, priority 2009, dated 2014)

Key:
karpas 299 cells = experiment: Measurement of inhibition of cell proliferation (Karpas), ATPlite; format: cell-based
Experimental: Measurement of Inhibition of Cell Proliferation (Karpas):
The antiproliferative activities of the compounds were measured using the ATPlite technique (Perkin Elmer).
The non-adhering cells (karpas 299) are seeded in 96-well plates (300 000 cells/ml) on Day 1 at a concentration compatible with logarithmic growth for 72 hours required for evaluation of the compounds. All the cells are treated on Day 1, then placed in an incubator at 37° C. under 5% CO2 atmosphere. Cell viability is evaluated on Day 4 by assay of released ATP, characteristic of viable cells. The IC50 values are determined by non-linear regression on the basis of a sigmoid model of dose/response relationship, Hill's slope coefficient being left variable, performed using GraphPad software sequence with the supplied algorithm.

ALK kinase = ALK kinase (Homo sapiens, UniProt Q9UM73); experiment: Test to measure ALK kinase inhibition (GST-PLCγ1 substrate, anti-phosphotyrosine ELISA, luminescence); format: biochemical; conditions: ALK kinase 180 ng/ml, 250 μM ATP, 30 minutes at 30° C.
Sequence of ALK kinase (Q9UM73 19-1620): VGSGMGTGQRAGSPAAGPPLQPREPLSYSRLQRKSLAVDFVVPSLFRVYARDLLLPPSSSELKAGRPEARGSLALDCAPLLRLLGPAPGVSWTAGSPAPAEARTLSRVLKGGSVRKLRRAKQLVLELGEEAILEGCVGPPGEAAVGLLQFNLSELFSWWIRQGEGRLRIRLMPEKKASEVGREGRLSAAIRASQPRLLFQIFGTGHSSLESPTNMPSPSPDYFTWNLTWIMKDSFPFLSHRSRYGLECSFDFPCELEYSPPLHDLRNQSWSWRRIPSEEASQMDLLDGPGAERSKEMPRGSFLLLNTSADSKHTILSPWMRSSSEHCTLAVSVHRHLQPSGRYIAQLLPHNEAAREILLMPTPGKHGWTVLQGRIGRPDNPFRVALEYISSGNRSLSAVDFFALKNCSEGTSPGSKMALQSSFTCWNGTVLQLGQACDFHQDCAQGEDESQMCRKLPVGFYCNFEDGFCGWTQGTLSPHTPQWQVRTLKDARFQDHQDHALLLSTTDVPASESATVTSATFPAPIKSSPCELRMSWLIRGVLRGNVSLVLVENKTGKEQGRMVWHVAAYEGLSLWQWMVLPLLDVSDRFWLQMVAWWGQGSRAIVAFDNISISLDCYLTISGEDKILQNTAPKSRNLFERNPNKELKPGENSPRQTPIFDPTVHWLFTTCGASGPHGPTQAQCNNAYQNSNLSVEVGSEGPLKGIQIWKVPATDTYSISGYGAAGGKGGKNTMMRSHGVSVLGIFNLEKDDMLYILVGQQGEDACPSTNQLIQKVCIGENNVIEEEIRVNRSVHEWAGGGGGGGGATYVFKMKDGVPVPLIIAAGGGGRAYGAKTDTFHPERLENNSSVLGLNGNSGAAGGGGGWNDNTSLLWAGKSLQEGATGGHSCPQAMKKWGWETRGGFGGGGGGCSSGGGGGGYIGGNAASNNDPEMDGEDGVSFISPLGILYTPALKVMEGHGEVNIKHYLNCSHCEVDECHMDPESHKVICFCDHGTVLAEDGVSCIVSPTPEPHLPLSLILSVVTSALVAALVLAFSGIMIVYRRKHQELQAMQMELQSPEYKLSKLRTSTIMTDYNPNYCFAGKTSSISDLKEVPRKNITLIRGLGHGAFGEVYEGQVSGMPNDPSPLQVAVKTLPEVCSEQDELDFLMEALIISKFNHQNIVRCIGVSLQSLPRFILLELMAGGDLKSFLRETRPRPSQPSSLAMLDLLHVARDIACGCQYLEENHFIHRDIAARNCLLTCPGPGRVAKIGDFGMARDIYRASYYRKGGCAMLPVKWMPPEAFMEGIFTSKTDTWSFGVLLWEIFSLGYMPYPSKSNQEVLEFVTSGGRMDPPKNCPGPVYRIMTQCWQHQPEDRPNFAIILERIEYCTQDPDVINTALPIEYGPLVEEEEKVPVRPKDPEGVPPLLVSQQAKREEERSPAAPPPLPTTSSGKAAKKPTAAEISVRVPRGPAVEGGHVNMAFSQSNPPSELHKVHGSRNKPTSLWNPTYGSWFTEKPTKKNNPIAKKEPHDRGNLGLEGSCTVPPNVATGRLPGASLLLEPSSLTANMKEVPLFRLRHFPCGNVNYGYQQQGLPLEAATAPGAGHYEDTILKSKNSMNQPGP
Experimental: Test to Measure ALK Kinase Inhibition
A ViewPlate (Packard) is incubated with the GST-PLCγ1 substrate (purified recombinant form) at 0.1 mg/ml in phosphate buffer (PBS pH 7.4)(100 μl/well) for one hour under shaking. The plate is then saturated with a blocking solution containing 5% bovine serum albumin (BSA) (SIGMA) in PBS buffer pH 7.4.
After adding the inhibitor at the desired final concentration (usual range of 30 μM to 10 nM), the reaction is conducted by adding the ALK kinase at 180 ng/ml in 13 mM Tris reaction buffer pH 7.5 (SIGMA); 6.5 mM MgCl2 (MERCK); 0.65 mM DiThioThreitol (DTT) (ACROS); 39 mM sodium β-glycerophosphate (TCI); 0.65 mM sodium orthovanadate (SIGMA) and 250 μM ATP (SIGMA). Incubation is carried out for 30 minutes at 30° C. under shaking.
After three washings under shaking in 0.1% PBS/Tween-20 buffer (SIGMA), an anti-phosphotyrosine antibody coupled with HRP (UBI) diluted to 1/1000th in PBS/BSA buffer 5 mg/ml, is incubated for one hour under shaking. After three further washings in 0.1% PBS/Tween-20, the wells are incubated two minutes with 100 μl of SuperSignal ELISA mixture (PIERCE).
The signal is read in luminescent mode using a luminometer (MOLECULAR DEVICES SpectraMax M5e).

| Structure (SMILES) | IC50 (karpas 299 cells; Homo sapiens, KARPAS-299, 72 h) [nM] | IC50 (ALK kinase) [nM] | IC50 (karpas 299 cells; 72 hours) [nM] |
| --- | --- | --- | --- |
| N#Cc1c(-c2ccccc2)nc2[nH]nc(-c3cccs3)c2c1-c1ccc(N2CCNCC2)cc1 [Compound 219] | 1000 to 10000 | 1000 to 10000 | – |
| Cc1cc(-c2nc3[nH]nc(-c4cccs4)c3c(-c3ccc(N4CCNCC4)cc3)c2C#N)c(F)cc1O [Compound 278] | 100 to 1000 | < 100 | – |
| N#Cc1c(-c2ccc(O)cc2F)nc2[nH]ncc2c1-c1ccco1 [Compound 75] | 100 to 1000 | < 100 | – |
| Cc1n[nH]c2nc(-c3ccc(O)cc3F)c(C#N)c(C3C[C@@H]3C(=O)N3CC[C@@H](N)C3)c12 (stereo partly shown) [Compound 147] | > 10000 | 1000 to 10000 | – |
| Cc1n[nH]c2nc(-c3ccc(O)cc3F)c(C#N)c(C(=O)NN3CCN(C)CC3)c12 [Compound 135] | > 10000 | 100 to 1000 | – |
| Cc1cc(-c2nc3[nH]nc(C)c3c(-c3ccc(N4CCNCC4)cc3)c2C#N)c(F)cc1O [Compound 286] | 100 to 1000 | < 100 | – |
| CC(=O)Oc1ccc(-c2nc3[nH]nc(-c4cccs4)c3c(-c3ccc(N4CCNCC4)cc3)c2C#N)c(F)c1 [Compound 298] | > 10000 | 100 to 1000 | – |
| Cc1n[nH]c2nc(-c3ccc(O)cc3F)c(C#N)c(-c3ccc(N4CCC(N5CCCC5)CC4)o3)c12 [Compound 162] | 100 to 1000 | < 100 | – |
| N#Cc1c(-c2cccc(O)c2)nc2[nH]nc(-c3cccs3)c2c1-c1ccc(N2CCNCC2)cc1 [Compound 247] | – | 100 to 1000 | 1000 to 10000 |
| Cc1ccc(-c2c(C#N)c(-c3ccc(O)cc3F)nc3[nH]ncc23)o1 [Compound 92] | 100 to 1000 | < 100 | – |
| N#Cc1c(-c2ccc(OC(=O)c3ccccc3)cc2F)nc2[nH]nc(-c3cccs3)c2c1-c1ccc(N2CCNCC2)cc1 [Compound 297] | 100 to 1000 | 100 to 1000 | – |
| N#Cc1c(-c2ccc(O)cc2)nc2[nH]ncc2c1-c1nccs1 [Compound 48] | 1000 to 10000 | 100 to 1000 | – |
| Cc1n[nH]c2nc(-c3ccc(O)cc3F)c(C#N)c(-c3ccc(N4CCC(N5CCN(C)CC5)CC4)o3)c12 [Compound 169] | – | < 100 | 100 to 1000 |
| Cc1n[nH]c2nc(-c3ccc(O)cc3F)c(C#N)c(-c3ccc(N4CCNCC4)s3)c12 [Compound 204] | 100 to 1000 | < 100 | – |
| Cc1n[nH]c2nc(-c3ccc(O)cc3F)c(C#N)c(-c3ccc(N4CC[C@H](N)C4)o3)c12 [Compound 134] | 1000 to 10000 | < 100 | – |
| Cc1n[nH]c2nc(-c3ccc(O)cc3F)c(C#N)c(-c3ccc(N4CCN(C)CC4)s3)c12 [Compound 184] | 100 to 1000 | < 100 | – |
| N#Cc1c(-c2ccc(O)c(Cl)c2)nc2[nH]nc(N)c2c1-c1ccc(N2CCNCC2)cc1 [Compound 192] | 1000 to 10000 | < 100 | – |
| Cc1n[nH]c2nc(-c3ccc(O)cc3F)c(C#N)c(-c3ccc(N4CC[C@@H](N)C4)o3)c12 [Compound 122] | 1000 to 10000 | < 100 | – |
| N#Cc1c(-c2ccc(O)cc2F)nc2[nH]ncc2c1-c1ccc(N2CCNCC2)o1 [Compound 113] | 100 to 1000 | < 100 | – |
| COc1ccc(-c2nc3[nH]ncc3c(-c3ccc(C#CCN)o3)c2C#N)cc1 [Compound 288] | > 10000 | 1000 to 10000 | – |
| Cc1c(C#N)c(-c2ccc(O)cc2F)nc2[nH]nc(-c3ccc(N(C)CCN(C)C)nc3)c12 [Compound 119] | 1000 to 10000 | 100 to 1000 | – |
| Cc1c(C#N)c(-c2ccc(O)cc2F)nc2[nH]nc(-c3ccc(N4CCN(C)CC4)nc3)c12 [Compound 115] | 1000 to 10000 | 100 to 1000 | – |
| Cc1n[nH]c2nc(Cc3ccc(F)cc3F)c(C#N)c(-c3ccc(N4CCNCC4)cc3F)c12 [Compound 302] | – | > 10000 | – |
| N#Cc1c(-c2ccc(O)cc2F)nc2[nH]nc(N)c2c1-c1ccc(OCCCN2CCCCC2)cc1 [Compound 203] | 1000 to 10000 | 100 to 1000 | – |
| Cc1n[nH]c2nc(-c3ccc(O)cc3F)c(C#N)c(-c3ccc(N4CCC(N5CCN(C)CC5)CC4)o3)c12 [Compound 142] | – | < 100 | > 10000 |
| Cc1n[nH]c2nc(-c3ccc(O)cc3F)c(C#N)c(C3C[C@@H]3C(=O)NCC3CCNCC3)c12 (stereo partly shown) [Compound 138] | > 10000 | 100 to 1000 | – |
| Cc1n[nH]c2nc(-c3ccc(O)cc3F)c(C#N)c(-c3csc(C4CCNCC4)n3)c12 [Compound 165] | – | 100 to 1000 | 1000 to 10000 |

| Structure (SMILES) | IC50 (karpas 299 cells; Homo sapiens, KARPAS-299, 72 h) [nM] | IC50 (ALK kinase) [nM] | IC50 (karpas 299 cells; 72 hours) [nM] |
| --- | --- | --- | --- |
| Cc1n[nH]c2nc(-c3ccc(O)cc3F)c(S(C)(=O)=O)c(-c3ccc(N4CCNCC4)cc3)c12 [Compound 238] | 1000 to 10000 | 100 to 1000 | – |
| N#Cc1c(-c2c(F)ccc(F)c2F)nc2[nH]nc(N)c2c1-c1ccc(N2CCNCC2)cc1 [Compound 212] | > 10000 | 1000 to 10000 | – |
| COc1cc(-c2c(C#N)c(-c3ccc(O)cc3F)nc3[nH]nc(C)c23)ccc1OCCCN(C)C [Compound 177] | 1000 to 10000 | 100 to 1000 | – |
| N#Cc1c(-c2c(F)ccc(F)c2F)nc2[nH]nc(-c3cccs3)c2c1-c1ccc(N2CCNCC2)cc1 [Compound 221] | 1000 to 10000 | 100 to 1000 | – |
| N#Cc1c(-c2ccc(O)cc2F)nc2[nH]nc(N)c2c1-c1ccc(N2CCC(N)CC2)o1 [Compound 190] | 1000 to 10000 | < 100 | – |
| Cc1n[nH]c2nc(-c3ccc(O)cc3F)c(C#N)c(-c3cnc(N)s3)c12 [Compound 150] | > 10000 | 100 to 1000 | – |
| CN1CCN(Cc2ccc(-c3c(C#N)c(-c4ccc(O)cc4)nc4[nH]ncc34)cc2)CC1 [Compound 47] | 1000 to 10000 | 1000 to 10000 | – |
| N#Cc1c(-c2ccc(O)cc2Cl)nc2[nH]nc(-c3ccc(N4CCOCC4)cc3)c2c1-c1ccc(N2CCNCC2)cc1 [Compound 256] | 1000 to 10000 | < 100 | – |
| N#Cc1c(-c2ccc(O)cc2F)nc2[nH]ncc2c1-c1ccc(-c2ccc(S(N)(=O)=O)cc2)o1 [Compound 287] | 1000 to 10000 | < 100 | – |
| COC(=O)c1c(-c2ccc(OC(=O)C(C)(C)C)cc2F)nc2[nH]nc(C)c2c1-c1ccc(N2CCNCC2)cc1 [Compound 300] | < 100 | < 100 | – |
| Cc1n[nH]c2nc(-c3ccc(O)cc3F)c(C#N)c(-c3ccc(N4CCNCC4)c([N+](=O)[O-])c3)c12 [Compound 209] | 1000 to 10000 | 100 to 1000 | – |
| Cc1n[nH]c2nc(-c3ccc(O)cc3)c(C#N)c(-c3ccc(O)cc3)c12 [Compound 19] | 1000 to 10000 | 100 to 1000 | – |
| Cc1n[nH]c2nc(-c3c(F)cc(O)cc3F)c(C#N)c(-c3ccc(N4CC[C@@H](N)C4)o3)c12 [Compound 155] | 1000 to 10000 | < 100 | – |
| Cc1n[nH]c2nc(-c3ccc(O)c(Cl)c3)c(C#N)c(-c3ccc(N4CCNCC4)cc3)c12 [Compound 180] | 100 to 1000 | < 100 | – |
| Cc1n[nH]c2nc(-c3ccc(O)cc3)c(C#N)c(-c3ccc(-c4ccc(N)cc4)o3)c12 [Compound 273] | > 10000 | 100 to 1000 | – |
| N#Cc1c(-c2ccc(OC(=O)c3ccccc3)cc2F)nc2[nH]nc(N)c2c1-c1ccc(N2CCNCC2)cc1 [Compound 304] | – | 1000 to 10000 | – |
| Cc1n[nH]c2nc(-c3ccc(O)cc3F)c(C#N)c(-c3ccc([N+](=O)[O-])cc3)c12 [Compound 143] | > 10000 | 1000 to 10000 | – |
| CNC1CCN(c2ccc(-c3c(C#N)c(-c4ccc(O)cc4F)nc4[nH]nc(C)c34)o2)C1 (stereo not shown) [Compound 130] | 100 to 1000 | < 100 | – |
| N#Cc1c(-c2ccc(O)cc2F)nc2[nH]nc(-c3ccncc3)c2c1-c1ccc(N2CCNCC2)cc1 [Compound 201] | > 10000 | < 100 | – |
| N#Cc1c(-c2cscn2)nc2[nH]nc(-c3cccs3)c2c1-c1ccc(N2CCNCC2)cc1 [Compound 276] | 1000 to 10000 | > 10000 | – |
| COc1cc(-c2cc3[nH]ncc3c(-c3ccco3)c2C#N)ccc1O [Compound 74] | – | 100 to 1000 | – |
| Cc1n[nH]c2nc(-c3ccc(O)cc3F)c(C#N)c(-c3ccc(N4CCNCC4)nc3)c12 [Compound 131] | 1000 to 10000 | 100 to 1000 | – |
| COC(=O)c1c(-c2ccc(O)cc2)nc2[nH]nc(N)c2c1-c1ccc(N2CCNCC2)cc1 [Compound 305] | – | < 100 | – |
| N#Cc1c(-c2ccc(O)cc2)nc2[nH]nc(N)c2c1-c1ccc(N2CCNCC2)cc1 [Compound 303] | – | 1000 to 10000 | – |
| COC(=O)c1c(-c2ccc(OC(=O)C3CC3)cc2F)nc2[nH]nc(C)c2c1-c1ccc(N2CCNCC2)cc1 [Compound 306] | – | < 100 | – |
| N#Cc1c(-c2ccc(O)cc2)nc2[nH]ncc2c1-c1ccc(OCCN2CCOCC2)cc1 [Compound 73] | – | 100 to 1000 | – |
| COC(=O)c1c(-c2ccc(O)cc2)nc2[nH]nc(N)c2c1-c1ccc(N2CCN(C)CC2)cc1 [Compound 307] | – | < 100 | – |
